Legend:
mononuclear cells = experiment: H&E staining, spinal cord infiltration of mononuclear cells in EAE mice; type: in vivo, C57BL/6 mice; settings: 1 mg/kg/day
Procedure: Female C57BL/6 mice of 8-12 weeks of age, purchased from Jackson Laboratory, were provided with food and water ad libitum and were kept in pathogen free animal care facility of Medical University of South Carolina (MUSC) throughout the study. All procedures were conducted in accordance with accepted standards of humane care as approved by the Institutional Animal Care and Use Committee (Approved number: AR #1644). EAE was induced as described previously (Nath et al., 2009). Briefly, mice were immunized subcutaneously in the flank regions with MOG35-55 peptide (MOG; 200 μg; Peptide International) emulsified (1:1) in 100 ul complete Freund's adjuvant (CFA) on day 0 and day 7. Additionally, 300 ng of Pertussis toxin (Sigma-Aldrich, St. Louis, Mo.) was given on day 0 and day 2 by i.p. injection. […] Clinical signs of EAE were scored by examiners blinded to experimental treatments using the following scale: 0=no clinical signs of disease; 1=piloerection and sluggish; 2=limp tail (ataxia); 2.5=ataxia with partial hind limb paralysis; 3=full paralysis of hind limb; 3.5=full paralysis of hind limb with paralysis of one fore limb; 4=full paralysis of two limbs; 4.5=moribund stage; 5=death. […]
Tissue samples were embedded in paraffin block and sectioned transversely (5 μm-thick). […] For the quantitation of infiltrates, the digital images were analyzed by ImageJ (NIH, Bethesda, Md.). […]

lymphocytes in blood = experiment: Total lymphocyte count in blood of normal mice (lymphopenic effect); type: in vivo, C57BL/6 mice; settings: normal mice without EAE, 1 mg/kg/day for 19 days
Procedure: The bloods collected in EDTA blood collection tubes (BD Biosciences) were analyzed by an automated hematology analyzer for counting total lymphocytes. For counting of each subset of lymphocytes, 50 μl of blood was mixed with staining buffer (20 μl) containing fluorescence labelled antibodies and red-blood-cells were lysed with FACS lysing solution (BD Biosciences) prior to fluorescence flow-cytometric analysis. For staining of CD3+, CD4+, and CD8+ cells, allophycocvanin (APC)-labeled anti-mouse CD3 (eBioscience clone 17A2), Fluorescein isothiocyanate (FITC)-labeled anti-mouse CD4 (eBioscience clone RM4-5), APC-labeled anti-mouse CD8 (eBioscience clone 53-6.7) and appropriate isotype matched controls.

[1] = test system: intracellular Ca^2+ ([Ca^2+]i) influx; experiment: Assay for intracellular Ca2+ influx in thrombin treated hBMVECs; type: cell-based, human; settings: thrombin 0.1 unit/ml; L-NIO or FeTPPS 10 μM; GSNO or SIN-1 various concentrations
Procedure: Cell culture: Primary human brain microvascular endothelial cells (hBMVECs) were purchased from Angio-Proteomie (Cat #: cAP-0002, Atlanta, Ga.). The cells were cultured in cell culture flasks or plates precoated with Quick Coating Solution (Angio-Proteomie; Cat #: cAP-01) and maintained in Endothelial Growth Medium (Angio-Proteomie; Cat #: cAP-02) at 37° C. under 5% CO2/95% air. When the cells were almost confluent, the medium was replaced with endothelial basal medium (Angio-Proteomie; Cat #: cAP-03) containing 0.5% fetal bovine serum (FBS; Life Technologies, Grand Island, N.Y.) about 8-12 hours before the experiment. No institutional approval was required for this study. The study was not pre-registered. Intracellular Ca^2+ concentration ([Ca^2+]i) was measured with Fluo-4 Direct Calcium Assay Kit (Thermo Fisher Scientific, Cat #: F10471, Grand Island, N.Y.). Briefly, culture medium in the 96-well plate was replaced with a Ca^2+ sensitive dye Fluo-4 in an endothelial basal medium. After 30 min incubation, the dye was removed and cells were incubated with the original medium with or without the drugs at 37° C. for 15 min. Following thrombin treatment, time course changes of fluorescent intensity were quantified using a CLARIOstar multi-well fluorometer (BMG Labtech, Cary, N.C.).

EAE mice = experiment: EAE (MOG35-55) clinical disease, GSNO vs FeTPPS; type: in vivo, C57BL/6J mice; settings: GSNO 1 mg/kg/i.p./day or FeTPPS 30 mg/kg/i.p./day from disease onset (day 13)
Procedure: EAE was induced as described previously (Nath et al., 2009). Animal procedures were approved by the institutional animal care and use committee of MUSC (AR #1644). Briefly, female C57BL/6J mice of 8-12 weeks of age weighing 18-22 g (The Jackson Laboratory, Bar Harbor, Me., USA) were randomly divided into four groups: 1) EAE animals treated with vehicle (EAE; n=8), 2) EAE with GSNO (1 mg/kg body weight per day; i.p.) treatment (EAE+GSNO; n=12), 3) EAE with FeTPPS (30 mg/kg body weight per day; i.p.) treatment (EAE+FeTPPS; n=8), 4) control with vehicle (Ctrl; n=8). The group size was determined by power analysis based on our previous data (Nadi et al., 2009). Then, the mice were immunized subcutaneously in the flank regions with MOG35-55 peptide (MOG; 200 ug; Peptide International) emulsified (1:1) in 100 ul complete Freund's adjuvant (CFA) CHI day 0 and day 7. […] Clinical signs of EAE were scored in animal facility in a blinded fashion to experimenter between 2 and 4 pm daily by examiners blinded to experimental treatments using the following scale: 0=no clinical signs of disease; 1=limp tail or waddling gait with tail tonicity; 2=waddling gait with limp tail (ataxia); 2.5=ataxia with partial limb paralysis; 3=full paralysis of one limb; 3.5=full paralysis of one limb with partial paralysis of second limb; 4=full paralysis of two limbs; 4.5=moribund stage; 5=death. […]

Row | SMILES | spinal cord infiltration of mononuclear cells (mononuclear cells) | numbers of total lymphocytes, CD3+ T cells, CD4+ T cells and CD8+ cells in blood (lymphocytes in blood) | thrombin-induced intracellular Ca2+ influx [1] | efficacy against clinical disease of EAE (EAE mice)
1 | Cc1cc(C(N)=O)ccc1-n1c(CCC(=O)O)ccc1-c1ccc(-n2ccnc2)cc1 [N6022, reference compound] | significantly reduced | did not affect | – | –
2 | N[C@@H](CCC(=O)N[C@@H](CSN=O)C(=O)NCC(=O)O)C(=O)O [GSNO, S-nitrosoglutathione] | reduced | no obvious effect | inhibited | great efficacy
3 | Cl.O=S(=O)([O-])c1ccc(-c2c3nc(c(-c4ccc(S(=O)(=O)O)cc4)c4ccc([nH]4)c(-c4ccc(S(=O)(=O)O)cc4)c4nc(c(-c5ccc(S(=O)(=O)O)cc5)c5ccc2[nH]5)C=C4)C=C3)cc1.[Fe] [FeTPPS, 5,10,15,20-Tetrakis(4-sulfonatophenyl)porphyrinato Iron (III), Cl, reference compound] | – | – | had not effect | significant efficacy but to a lower degree than GSNO treatment

— patent US10925858B2, “S-nitrosoglutathione (GSNO) and GSNO reductase inhibitors for use in therapy” (MUSC FOUNDATION FOR RESEARCH DEVELOPMENT, priority 2017, dated 2021)
